# Measured values: patent US10168342B2, “Lipid probes and uses thereof” (THE SCRIPPS RESEARCH INSTITUTE, priority 2015, dated 2019)
# How the values were obtained:
# [1] = target: AEA-DA lipid probe targets in A549 cells (Homo sapiens, UniProt O95470); test: In situ competitive SILAC profiling with AEA-DA probe in A549 cells; conditions: competitor 25 μM
# [2] = target: AEA-DA lipid probe targets in A549 cells (Homo sapiens, UniProt P21796); test: as above; conditions: competitor 25 μM
# [3] = target: AEA-DA lipid probe targets in A549 cells (Homo sapiens, UniProt P30519); test: as above; conditions: competitor 25 μM
# [4] = target: AEA-DA lipid probe targets in A549 cells (Homo sapiens, UniProt P45880); test: as above; conditions: competitor 25 μM
# [5] = target: AEA-DA lipid probe targets in A549 cells (Homo sapiens, UniProt P67812); test: as above; conditions: competitor 25 μM
# [6] = target: AEA-DA lipid probe targets in A549 cells (Homo sapiens, UniProt Q14534); test: as above; conditions: competitor 25 μM
# [7] = target: AEA-DA lipid probe targets in A549 cells (Homo sapiens, UniProt Q53GQ0); test: as above; conditions: competitor 25 μM
# [8] = target: AEA-DA lipid probe targets in A549 cells (Homo sapiens, UniProt Q86XL3); test: as above; conditions: competitor 25 μM
# [9] = system: AEA-DA lipid probe targets in A549 cells; test: as above; conditions: competitor 25 μM
# [10] = target: T1, lipid-binding proteins in A549 cells (Homo sapiens, UniProt O15173); test: SILAC MS mapping of UV-dependent lipid probe targets in A549 cells; format: cell-based; conditions: AEA-DA probe vs NoUV
# T1 construct: endogenous in cells; host or cells: A549 (PMA-stimulated for the PTGS2 experiments)
# [11] = target: T2, lipid-binding proteins in A549 cells (Homo sapiens, UniProt O95470); test: as above; format: cell-based; conditions: AEA-DA probe vs NoUV
# T2 construct: endogenous in cells; host or cells: A549 (PMA-stimulated for the PTGS2 experiments)
# [12] = target: T3, lipid-binding proteins in A549 cells (Homo sapiens, UniProt P07602); test: as above; format: cell-based; conditions: AEA-DA probe vs NoUV
# T3 construct: endogenous in cells; host or cells: A549 (PMA-stimulated for the PTGS2 experiments)
# [13] = target: T4, lipid-binding proteins in A549 cells (Homo sapiens, UniProt P21796); test: as above; format: cell-based; conditions: AEA-DA probe vs NoUV
# T4 construct: endogenous in cells; host or cells: A549 (PMA-stimulated for the PTGS2 experiments)
# [14] = target: T5, lipid-binding proteins in A549 cells (Homo sapiens, UniProt P30519); test: as above; format: cell-based; conditions: AEA-DA probe vs NoUV
# T5 construct: endogenous in cells; host or cells: A549 (PMA-stimulated for the PTGS2 experiments)
# [15] = target: T6, lipid-binding proteins in A549 cells (Homo sapiens, UniProt P45880); test: as above; format: cell-based; conditions: AEA-DA probe vs NoUV
# T6 construct: endogenous in cells; host or cells: A549 (PMA-stimulated for the PTGS2 experiments)
# [16] = target: T7, lipid-binding proteins in A549 cells (Homo sapiens, UniProt P67812); test: as above; format: cell-based; conditions: AEA-DA probe vs NoUV
# T7 construct: endogenous in cells; host or cells: A549 (PMA-stimulated for the PTGS2 experiments)
# [17] = target: T8, lipid-binding proteins in A549 cells (Homo sapiens, UniProt Q14534); test: as above; format: cell-based; conditions: AEA-DA probe vs NoUV
# T8 construct: endogenous in cells; host or cells: A549 (PMA-stimulated for the PTGS2 experiments)
# [18] = target: T9, lipid-binding proteins in A549 cells (Homo sapiens, UniProt Q53GQ0); test: as above; format: cell-based; conditions: AEA-DA probe vs NoUV
# T9 construct: endogenous in cells; host or cells: A549 (PMA-stimulated for the PTGS2 experiments)
# [19] = target: T10, lipid-binding proteins in A549 cells (Homo sapiens, UniProt Q86XL3); test: as above; format: cell-based; conditions: AEA-DA probe vs NoUV
# T10 construct: endogenous in cells; host or cells: A549 (PMA-stimulated for the PTGS2 experiments)
# [20] = target: T11, lipid-binding proteins in A549 cells (Homo sapiens, UniProt Q9H4I3); test: as above; format: cell-based; conditions: AEA-DA probe vs NoUV
# T11 construct: endogenous in cells; host or cells: A549 (PMA-stimulated for the PTGS2 experiments)
# [21] = target: T12, lipid-binding proteins in A549 cells (Homo sapiens, UniProt Q9HAW7); test: as above; format: cell-based; conditions: AEA-DA probe vs NoUV
# T12 construct: endogenous in cells; host or cells: A549 (PMA-stimulated for the PTGS2 experiments)
# [22] = target: T13, lipid-binding proteins in A549 cells (Homo sapiens, UniProt Q9NS69); test: as above; format: cell-based; conditions: AEA-DA probe vs NoUV
# T13 construct: endogenous in cells; host or cells: A549 (PMA-stimulated for the PTGS2 experiments)
# T13 sequence (Q9NS69 whole entry): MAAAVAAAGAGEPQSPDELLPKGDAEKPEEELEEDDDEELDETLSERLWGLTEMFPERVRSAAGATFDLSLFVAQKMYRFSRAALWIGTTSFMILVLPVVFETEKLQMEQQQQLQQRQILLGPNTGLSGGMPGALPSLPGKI
# T5 sequence (P30519 whole entry): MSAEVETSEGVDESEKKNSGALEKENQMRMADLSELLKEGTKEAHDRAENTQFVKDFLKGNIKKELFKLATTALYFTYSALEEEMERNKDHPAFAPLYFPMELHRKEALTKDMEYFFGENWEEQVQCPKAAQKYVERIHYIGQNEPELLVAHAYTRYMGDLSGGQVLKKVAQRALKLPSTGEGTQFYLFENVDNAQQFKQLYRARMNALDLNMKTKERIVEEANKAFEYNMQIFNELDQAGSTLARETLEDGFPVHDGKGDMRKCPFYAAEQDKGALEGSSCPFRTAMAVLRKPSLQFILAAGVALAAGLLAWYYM
# Chain of AEA-DA lipid probe targets in A549 cells (Homo sapiens, UniProt P30519) (P30519 whole entry): as above
# T8 sequence (Q14534 whole entry): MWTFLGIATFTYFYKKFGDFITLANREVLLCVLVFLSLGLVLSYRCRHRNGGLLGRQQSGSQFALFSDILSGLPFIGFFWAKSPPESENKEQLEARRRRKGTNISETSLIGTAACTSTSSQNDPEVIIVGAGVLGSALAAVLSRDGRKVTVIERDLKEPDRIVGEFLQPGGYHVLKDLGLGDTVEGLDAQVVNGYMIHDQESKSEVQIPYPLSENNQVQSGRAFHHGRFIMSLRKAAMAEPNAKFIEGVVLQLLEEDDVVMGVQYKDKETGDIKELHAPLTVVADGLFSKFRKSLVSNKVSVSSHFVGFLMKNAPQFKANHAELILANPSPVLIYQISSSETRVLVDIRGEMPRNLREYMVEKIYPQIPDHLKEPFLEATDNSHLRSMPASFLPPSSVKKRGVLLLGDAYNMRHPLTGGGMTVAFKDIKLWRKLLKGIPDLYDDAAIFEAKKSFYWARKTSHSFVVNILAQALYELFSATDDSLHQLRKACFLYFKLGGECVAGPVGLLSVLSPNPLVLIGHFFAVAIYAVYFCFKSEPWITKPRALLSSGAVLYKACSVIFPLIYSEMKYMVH
# Chain of AEA-DA lipid probe targets in A549 cells (Homo sapiens, UniProt Q14534) (Q14534 whole entry): as above
# T10 sequence (Q86XL3 whole entry): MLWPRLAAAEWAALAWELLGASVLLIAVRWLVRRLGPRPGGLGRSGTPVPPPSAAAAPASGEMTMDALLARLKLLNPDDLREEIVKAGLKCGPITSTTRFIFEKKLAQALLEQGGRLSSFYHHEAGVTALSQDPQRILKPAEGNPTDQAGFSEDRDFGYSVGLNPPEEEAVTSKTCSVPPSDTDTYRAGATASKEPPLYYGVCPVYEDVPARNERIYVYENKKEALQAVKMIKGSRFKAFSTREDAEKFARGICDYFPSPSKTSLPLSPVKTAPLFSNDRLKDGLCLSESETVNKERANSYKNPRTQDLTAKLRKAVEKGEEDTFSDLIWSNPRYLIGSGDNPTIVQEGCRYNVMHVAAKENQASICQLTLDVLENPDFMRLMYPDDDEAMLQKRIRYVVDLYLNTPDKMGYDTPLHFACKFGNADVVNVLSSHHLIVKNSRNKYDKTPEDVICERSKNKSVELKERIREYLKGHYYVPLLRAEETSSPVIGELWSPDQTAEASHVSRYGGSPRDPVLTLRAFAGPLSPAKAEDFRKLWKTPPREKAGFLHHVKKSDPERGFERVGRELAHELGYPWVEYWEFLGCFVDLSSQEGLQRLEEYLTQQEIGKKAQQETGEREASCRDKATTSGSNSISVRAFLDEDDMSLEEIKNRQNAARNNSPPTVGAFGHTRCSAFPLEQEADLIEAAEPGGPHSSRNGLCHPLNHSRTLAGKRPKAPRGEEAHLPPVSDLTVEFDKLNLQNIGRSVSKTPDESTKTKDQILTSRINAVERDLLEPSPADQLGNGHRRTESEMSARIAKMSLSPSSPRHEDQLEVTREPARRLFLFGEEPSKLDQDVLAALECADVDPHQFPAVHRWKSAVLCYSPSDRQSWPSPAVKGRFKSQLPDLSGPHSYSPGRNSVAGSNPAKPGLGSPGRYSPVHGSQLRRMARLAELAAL
# Chain of AEA-DA lipid probe targets in A549 cells (Homo sapiens, UniProt Q86XL3) (Q86XL3 whole entry): as above
# T12 sequence (Q9HAW7 26-530): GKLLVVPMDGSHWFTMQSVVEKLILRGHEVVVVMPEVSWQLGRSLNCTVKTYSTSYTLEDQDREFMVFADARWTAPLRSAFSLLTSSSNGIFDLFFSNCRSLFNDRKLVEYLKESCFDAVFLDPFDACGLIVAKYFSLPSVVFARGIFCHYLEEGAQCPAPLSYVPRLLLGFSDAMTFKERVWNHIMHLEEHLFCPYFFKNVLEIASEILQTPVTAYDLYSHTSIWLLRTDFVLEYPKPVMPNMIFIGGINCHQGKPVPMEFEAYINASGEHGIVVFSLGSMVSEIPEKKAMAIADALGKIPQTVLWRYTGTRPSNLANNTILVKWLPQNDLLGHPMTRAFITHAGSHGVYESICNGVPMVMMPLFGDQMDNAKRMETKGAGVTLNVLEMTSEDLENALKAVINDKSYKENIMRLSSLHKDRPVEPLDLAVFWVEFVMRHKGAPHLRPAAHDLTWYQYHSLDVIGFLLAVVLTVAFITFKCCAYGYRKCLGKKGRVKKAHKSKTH
# T1 sequence (O15173 whole entry): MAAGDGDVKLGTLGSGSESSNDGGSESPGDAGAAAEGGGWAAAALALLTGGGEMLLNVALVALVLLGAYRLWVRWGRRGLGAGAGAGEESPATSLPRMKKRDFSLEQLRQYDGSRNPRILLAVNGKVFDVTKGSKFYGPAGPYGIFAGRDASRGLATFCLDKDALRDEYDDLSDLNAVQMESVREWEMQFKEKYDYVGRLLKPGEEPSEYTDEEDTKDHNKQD
# Chain of AEA-DA lipid probe targets in A549 cells (Homo sapiens, UniProt P67812) (P67812 whole entry): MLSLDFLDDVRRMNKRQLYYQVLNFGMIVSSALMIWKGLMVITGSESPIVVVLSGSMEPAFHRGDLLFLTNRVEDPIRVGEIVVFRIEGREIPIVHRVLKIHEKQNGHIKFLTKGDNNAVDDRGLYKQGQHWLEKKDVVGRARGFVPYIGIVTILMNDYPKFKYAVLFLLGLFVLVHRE
# T7 sequence (P67812 whole entry): as above
# Chain of AEA-DA lipid probe targets in A549 cells (Homo sapiens, UniProt P21796) (P21796 whole entry): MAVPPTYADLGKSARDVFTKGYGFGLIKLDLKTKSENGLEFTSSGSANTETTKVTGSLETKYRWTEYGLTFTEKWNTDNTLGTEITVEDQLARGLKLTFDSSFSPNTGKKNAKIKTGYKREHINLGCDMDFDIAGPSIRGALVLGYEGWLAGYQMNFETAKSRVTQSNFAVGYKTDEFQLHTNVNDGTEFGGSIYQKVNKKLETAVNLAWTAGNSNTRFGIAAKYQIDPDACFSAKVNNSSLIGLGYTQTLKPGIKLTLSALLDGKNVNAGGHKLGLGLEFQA
# T4 sequence (P21796 whole entry): as above
# T11 sequence (Q9H4I3 whole entry): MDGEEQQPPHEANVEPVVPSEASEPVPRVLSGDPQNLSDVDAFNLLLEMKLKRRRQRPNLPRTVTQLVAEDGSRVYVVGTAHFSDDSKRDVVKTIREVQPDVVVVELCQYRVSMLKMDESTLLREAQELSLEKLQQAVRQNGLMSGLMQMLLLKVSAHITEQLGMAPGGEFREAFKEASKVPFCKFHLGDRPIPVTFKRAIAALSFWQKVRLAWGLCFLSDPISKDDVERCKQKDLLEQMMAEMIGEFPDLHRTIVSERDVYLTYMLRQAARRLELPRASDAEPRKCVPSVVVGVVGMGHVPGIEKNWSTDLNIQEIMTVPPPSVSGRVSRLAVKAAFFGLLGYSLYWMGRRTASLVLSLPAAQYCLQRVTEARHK
# T3 sequence (P07602 60-524): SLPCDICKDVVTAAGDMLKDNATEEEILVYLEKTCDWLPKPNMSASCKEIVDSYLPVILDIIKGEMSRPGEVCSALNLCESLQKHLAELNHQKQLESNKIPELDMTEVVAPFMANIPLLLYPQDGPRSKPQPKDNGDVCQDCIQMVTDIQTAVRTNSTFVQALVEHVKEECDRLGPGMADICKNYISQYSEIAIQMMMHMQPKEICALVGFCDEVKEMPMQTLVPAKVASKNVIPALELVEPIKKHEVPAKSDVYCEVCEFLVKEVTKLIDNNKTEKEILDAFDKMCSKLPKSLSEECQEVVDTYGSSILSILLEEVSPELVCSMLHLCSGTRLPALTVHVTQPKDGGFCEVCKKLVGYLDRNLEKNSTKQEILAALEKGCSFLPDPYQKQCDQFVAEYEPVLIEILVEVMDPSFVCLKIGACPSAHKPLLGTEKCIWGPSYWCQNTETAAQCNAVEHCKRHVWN
# T2 sequence (O95470 whole entry): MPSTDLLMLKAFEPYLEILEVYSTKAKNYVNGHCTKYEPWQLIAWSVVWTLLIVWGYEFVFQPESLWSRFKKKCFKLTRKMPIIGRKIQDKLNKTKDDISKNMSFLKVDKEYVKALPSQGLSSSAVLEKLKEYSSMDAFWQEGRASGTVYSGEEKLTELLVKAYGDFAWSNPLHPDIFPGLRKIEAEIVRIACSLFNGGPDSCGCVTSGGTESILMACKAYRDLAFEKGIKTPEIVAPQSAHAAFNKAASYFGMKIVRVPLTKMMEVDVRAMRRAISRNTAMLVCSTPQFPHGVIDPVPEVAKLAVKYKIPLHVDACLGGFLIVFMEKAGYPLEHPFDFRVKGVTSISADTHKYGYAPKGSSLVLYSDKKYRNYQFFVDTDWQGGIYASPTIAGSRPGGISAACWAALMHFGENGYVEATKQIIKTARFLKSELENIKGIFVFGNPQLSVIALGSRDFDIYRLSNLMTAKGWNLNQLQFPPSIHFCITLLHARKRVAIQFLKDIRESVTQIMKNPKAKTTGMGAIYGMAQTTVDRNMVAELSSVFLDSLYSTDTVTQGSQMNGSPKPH
# Chain of AEA-DA lipid probe targets in A549 cells (Homo sapiens, UniProt O95470) (O95470 whole entry): as above
smiles,measurement,setting,value
"O=C(/C=C/c1cccnc1)NCCCCC1CCN(C(=O)c2ccccc2)CC1 [FK-866, reference compound]","SILAC ratio, SGPL1 (O95470)",[1],0.8
same,"SILAC ratio, VDAC1 (P21796)",[2],0.8
same,"SILAC ratio, HMOX2 (P30519)",[3],0.7
same,"SILAC ratio, VDAC2 (P45880)",[4],0.9
same,"SILAC ratio, SEC11A (P67812)",[5],0.6
same,"SILAC ratio, SQLE (Q14534)",[6],0.7
same,"SILAC ratio, HSD17B12 (Q53GQ0)",[7],0.8
same,"SILAC ratio, ANKLE2 (Q86XL3)",[8],0.6
same,"SILAC ratio, PGRMC2 (Q80UU9)",[9],0.7
same,"SILAC ratio, PSAP (P07602)",[9],0.7
same,"SILAC ratio, TOMM22 (Q9CPQ3)",[9],0.6
same,"SILAC ratio, UGT1A7 (Q9HAW7)",[9],1.5
"C#CCCCC1(CC/C=C\C/C=C\C/C=C\CCCC(=O)NCCO)N=N1 [AEA-DA, (5Z,8Z,11Z)-N-(2-hydroxyethyl)-14-(3-(pent-4-yn-1-yl)-3H-diazirin-3-yl)tetradeca-5,8,11-trienamide]","SILAC ratio, PGRMC2 (Q80UU9)",[10],20.0
same,"SILAC ratio, SGPL1 (O95470)",[11],20.0
same,"SILAC ratio, PSAP (P07602)",[12],20.0
same,"SILAC ratio, VDAC1 (P21796)",[13],20.0
same,"SILAC ratio, HMOX2 (P30519)",[14],20.0
same,"SILAC ratio, VDAC2 (P45880)",[15],20.0
same,"SILAC ratio, SEC11A (P67812)",[16],14.0
same,"SILAC ratio, SQLE (Q14534)",[17],20.0
same,"SILAC ratio, HSD17B12 (Q53GQ0)",[18],20.0
same,"SILAC ratio, ANKLE2 (Q86XL3)",[19],20.0
same,"SILAC ratio, TRABD (Q99JY4)",[20],20.0
same,"SILAC ratio, UGT1A7 (Q9HAW7)",[21],20.0
same,"SILAC ratio, TOMM22 (Q9CPQ3)",[22],20.0
